Structures are written as SMILES.

human RORgammaT-Ligand Binding Domain (LBD), sequence (P51449 269-508): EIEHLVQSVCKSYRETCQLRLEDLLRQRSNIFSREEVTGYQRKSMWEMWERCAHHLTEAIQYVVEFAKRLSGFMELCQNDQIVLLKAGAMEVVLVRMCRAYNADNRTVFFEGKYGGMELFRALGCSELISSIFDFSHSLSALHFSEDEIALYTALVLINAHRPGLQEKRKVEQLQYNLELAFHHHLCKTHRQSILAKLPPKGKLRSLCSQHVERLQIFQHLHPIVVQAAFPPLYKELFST

This assay concerns the target human RORgammaT-Ligand Binding Domain (LBD) (Homo sapiens (Human), UniProt P51449). Put plainly: RORγ-Ligand Binding Domain TR-FRET Assay (co-activator peptide SRC1_2 recruitment). It counts as biochemical. To be noted: HIS-tagged RORγ-LBD 3 nM, biotinylated SRC1 LXXLL peptide 100 nM, incubated overnight at 4° C., 665 nm/615 nm ratio. The gist of the method:
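E. coli-expressed, Ni2+-purified HIS-tagged human RORγ-LBD at 3 nM final in 50 mM Tris pH 7.0, 50 mM KCl, 1 mM EDTA, 0.1 mM DTT, 100 μg/mL delipidated BSA. TR-FRET read-out of SRC1_2 co-activator peptide recruitment; compounds dispensed acoustically.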
(In general: TR-FRET usually uses a lanthanide donor and a delayed reading to cut background.)
The IC50 is the midpoint of a concentration-inhibition curve. For the molecule `CCOc1sc(CC)nc1S(=O)(=O)N1C[C@H](C[C@@H](C)C(=O)O)Oc2ccc(NC(=O)OC(C)(C)C(F)(F)F)cc21` (single isomer, unassigned) [Example 6Bo, (R or S)-3-((S)-4-((5-ethoxy-2-ethylthiazol-4-yl)sulfonyl)-6-((((1,1,1-trifluoro-2-methylpropan-2-yl)oxy)carbonyl)amino)-3,4-dihydro-2H-benzo[b][1,4]oxazin-2-yl)-2-methylpropanoic acid], the IC50 turned out to be 11.9 nM.
For `CC(C)(C[C@H]1CN(S(=O)(=O)c2c(Cl)nn3c2CCCC3)c2cc(NC(=O)OC(C)(C)C(F)(F)F)ccc2O1)C(=O)O` [Example 12Y, 3-[(2S)-4-[(2-chloro-4,5,6,7-tetrahydropyrazolo[1,5-a]pyridin-3-yl)sulfonyl]-6-{[(2,2,2-trifluoro-1,1-dimethylethoxy)carbonyl]ami-no}-3,4-dihydro-2H-1,4-benzoxazin-2-yl]-2,2-dimethylpropanoic acid], the IC50 was determined as 14.4 nM.
In the case of `CC(C)(OC(=O)Nc1ccc2c(c1)N(S(=O)(=O)c1ccc(F)c(C(F)(F)F)c1)C[C@H]([C@@H](CC(=O)O)C1CC1)O2)C(F)(F)F` (single isomer, unassigned) [Example 21A, (S or R)-3-cyclopropyl-3-((S)-4-((4-fluoro-3-(trifluoromethyl)phenyl)sulfonyl)-6-((((1,1,1-trifluoro-2-methylpropan-2-yl)oxy)carbonyl)amino)-3,4-dihydro-2H-benzo[b][1,4]oxazin-2-yl)propanoic acid], the half-maximal inhibitory concentration (IC50) worked out at 28 nM.
To `Cc1cc(S(=O)(=O)N2C[C@H](C[C@H](C(=O)O)C3CC3)Oc3ccc(NC(=O)OC(C)(C)C(F)(F)F)cc32)ccc1F` (single isomer, unassigned) [Example 10X, (R or S)-2-cyclopropyl-3-((S)-4-((4-fluoro-3-methylphenyl)sulfonyl)-6-((((1,1,1-trifluoro-2-methylpropan-2-yl)oxy)carbonyl)amino)-3,4-dihydro-2H-benzo[b][1,4]oxazin-2-yl)propanoic acid] belongs 32.8 nM.
For the molecule `COc1cc(S(=O)(=O)N2C[C@H](CCC(=O)O)Oc3ccc(NC(=O)O[C@@H](C)C(C)(C)C)cc32)ccc1F` (single isomer, unassigned) [Example 24C, 3-{(2S)-4-[(4-fluoro-3-methoxyphenyl)sulfonyl]-6-[({[(1S or 1R)-1,2,2-trimethylpropyl]oxy}carbonyl)amino]-3,4-dihydro-2H-1,4-benzoxazin-2-yl}propanoic acid], the IC50 stood at 3.8 nM.
Next, `CC(C)(OC(=O)Nc1ccc2c(c1)N(S(=O)(=O)c1ccc(F)c(C(F)(F)F)c1)C[C@H]([C@H]1C[C@@H]1C(=O)O)O2)C(F)(F)F` [Example 22D, (1S,2S)-2-((S)-4-((4-fluoro-3-(trifluoromethyl)phenyl)sulfonyl)-6-((((1,1,1-trifluoro-2-methylpropan-2-yl)oxy)carbonyl)amino)-3,4-dihydro-2H-benzo[b][1,4]oxazin-2-yl)cyclopropanecarboxylic acid]: 5.87 nM; `COc1cc(S(=O)(=O)N2C[C@H](CC(C)(CO)C(=O)O)Oc3ccc(NC(=O)OC(C)(C)C(F)(F)F)cc32)ccc1F` (single isomer, unassigned) [Example 18J, (S or R)-3-((S)-4-((4-fluoro-3-methoxyphenyl)sulfonyl)-6-((((1,1,1-trifluoro-2-methylpropan-2-yl)oxy)carbonyl)amino)-3,4-dihydro-2H-benzo[b][1,4]oxazin-2-yl)-2-(hydroxymethyl)-2-methylpropanoic acid]: 9.13 nM; `Cc1cccc(S(=O)(=O)N2C[C@H](C[C@H](C)C(=O)O)Oc3ccc(NC(=O)OC(C)(C)C(F)(F)F)cc32)c1` (single isomer, unassigned) [Example 6CP, (S or R)-2-methyl-3-((S)-4-(m-tolylsulfonyl)-6-((((1,1,1-trifluoro-2-methylpropan-2-yl)oxy)carbonyl)amino)-3,4-dihydro-2H-benzo[b][1,4]oxazin-2-yl)propanoic acid]: 11.6 nM.
To `CCc1nc(S(=O)(=O)N2C[C@H](CCC(=O)O)Oc3ccc(NC(=O)OC(C)(C)C(F)(F)F)cc32)c(OC(C)C)s1` [Example 6CF, 3-[(2S)-4-{[2-ethyl-5-(1-methylethoxy)-1,3-thiazol-4-yl]sulfonyl}-6-{[(2,2,2-trifluoro-1,1-dimethylethoxy)carbonyl]amino}-3,4-dihydro-2H-1,4-benzoxazin-2-yl]propanoic acid] belongs 20 nM; to `Cc1cc(S(=O)(=O)N2C[C@H](C[C@@H](C(=O)O)C3CC3)Oc3ccc(NC(=O)OC(C)(C)C(F)(F)F)cc32)ccc1F` (single isomer, unassigned) [Example 10T, (R or S)-2-cyclopropyl-3-((S)-4-((4-fluoro-3-methylphenyl)sulfonyl)-6-((((1,1,1-trifluoro-2-methylpropan-2-yl)oxy)carbonyl)amino)-3,4-dihydro-2H-benzo[b][1,4]oxazin-2-yl)propanoic acid], 16 nM.
Regarding `CC[C@H](C[C@H]1CN(S(=O)(=O)c2cccc(C3CC3)c2)c2cc(NC(=O)OC(C)(C)C(F)(F)F)ccc2O1)C(=O)O` (single isomer, unassigned) [Example 10D, (R or S)-2-(((S)-4-((3-cyclopropylphenyl)sulfonyl)-6-((((1,1,1-trifluoro-2-methylpropan-2-yl)oxy)carbonyl)amino)-3,4-dihydro-2H-benzo[b][1,4]oxazin-2-yl)methyl)butanoic acid], the concentration for half-maximal inhibition (IC50) was determined as 12.8 nM.
As for `CC(C)(OC(=O)Nc1ccc2c(c1)N(S(=O)(=O)c1cccc(C#N)c1)C[C@H](CCC(=O)O)O2)C(F)(F)F` [Example 6L, (S)-3-(4-((3-cyanophenyl)sulfonyl)-6-((((1,1,1-trifluoro-2-methylpropan-2-yl)oxy)carbonyl)amino)-3,4-dihydro-2H-benzo[b][1,4]oxazin-2-yl)propanoic acid], the IC50 was found to be 11 nM.
To `CC(C)(OC(=O)Nc1ccc2c(c1)N(S(=O)(=O)c1cccc(Br)c1)C[C@H](CCC(=O)O)O2)C(F)(F)F` [Example 6AA, (S)-3-(4-((3-bromophenyl)sulfonyl)-6-((((1,1,1-trifluoro-2-methylpropan-2-yl)oxy)carbonyl)amino)-3,4-dihydro-2H-benzo[b][1,4]oxazin-2-yl)propanoic acid] belongs 6 nM; to `CC(C)(OC(=O)Nc1ccc2c(c1)N(S(=O)(=O)c1cccc(OC(F)(F)F)c1)C[C@H](CCC(=O)O)O2)C(F)(F)F` [Example 6S, (S)-3-(6-((((1,1,1-trifluoro-2-methylpropan-2-yl)oxy)carbonyl)amino)-4-((3-(trifluoromethoxy)phenyl)sulfonyl)-3,4-dihydro-2H-benzo[b][1,4]oxazin-2-yl)propanoic acid], 6 nM; to `COc1cc(S(=O)(=O)N2C[C@H](CCC(=O)O)Oc3ccc(NC(=O)OCC4(C(F)(F)F)CC4)cc32)ccc1F` [Example 24A, 3-{(2S)-4-[(4-fluoro-3-methoxyphenyl)sulfonyl]-6-[({[1-(trifluoromethyl)cyclopropyl]methoxy}carbonyl)amino]-3,4-dihydro-2H-1,4-benzoxazin-2-yl}propanoic acid], 17.7 nM.
Next, `CC[C@H](C[C@H]1CN(S(=O)(=O)c2cn(CC)nc2OCCO)c2cc(NC(=O)OC(C)(C)C(F)(F)F)ccc2O1)C(=O)O` (single isomer, unassigned) [Example 10L, (R or S)-2-(((S)-4-((1-ethyl-3-(2-hydroxyethoxy)-1H-pyrazol-4-yl)sulfonyl)-6-((((1,1,1-trifluoro-2-methylpropan-2-yl)oxy)carbonyl)amino)-3,4-dihydro-2H-benzo[b][1,4]oxazin-2-yl)methyl)butanoic acid]: 49.5 nM; `C[C@@H]1[C@H](CCC(=O)O)Oc2ccc(NC(=O)OC(C)(C)C(F)(F)F)cc2N1S(=O)(=O)c1cccc(C(F)(F)F)c1` [Example 25, 3-((2S,3R)-3-methyl-6-((((1,1,1-trifluoro-2-methylpropan-2-yl)oxy)carbonyl)amino)-4-((3-(trifluoromethyl)phenyl)sulfonyl)-3,4-dihydro-2H-benzo[b][1,4]oxazin-2-yl)propanoic acid]: 10.1 nM; `CC(C)(OC(=O)Nc1ccc2c(c1)N(S(=O)(=O)c1cccc(C3CC3)c1)C[C@H](CCC(=O)O)O2)C(F)(F)F` [Example 6AC, (S)-3-(4-((3-cyclopropylphenyl)sulfonyl)-6-((((1,1,1-trifluoro-2-methylpropan-2-yl)oxy)carbonyl)amino)-3,4-dihydro-2H-benzo[b][1,4]oxazin-2-yl)propanoic acid]: 8 nM.
`CC(C)(C[C@H]1CN(S(=O)(=O)c2cncc(C#N)c2)c2cc(NC(=O)OC(C)(C)C(F)(F)F)ccc2O1)C(=O)O` [Example 12M, 3-[(2S)-4-[(5-cyanopyridin-3-yl)sulfonyl]-6-{[(2,2,2-trifluoro-1,1-dimethylethoxy)carbonyl]ami-no}-3,4-dihydro-2H-1,4-benzoxazin-2-yl]-2,2-dimethylpropanoic acid]: the IC50 turned out to be 61.8 nM.
As to `CCOc1sc(C(F)(F)F)nc1S(=O)(=O)N1C[C@H](CCC(=O)O)Oc2ccc(NC(=O)OC(C)(C)C(F)(F)F)cc21` [Example 6CE, 3-[(2S)-4-{[5-ethoxy-2-(trifluoromethyl)-1,3-thiazol-4-yl]sulfonyl}-6-{[(2,2,2-trifluoro-1,1-dimethylethoxy)carbonyl]amino}-3,4-dihydro-2H-1,4-benzoxazin-2-yl]propanoic acid], the IC50 came to 67.5 nM.
Next, `COc1cc(S(=O)(=O)N2C[C@H](CCC(=O)O)Oc3ccc(NC(=O)OC4(C(F)(F)F)CCC4)cc32)ccc1F` [Example 24B, 3-{(2S)-4-[(4-fluoro-3-methoxyphenyl)sulfonyl]-6-[({[1-(trifluoromethyl)cyclobutyl]oxy}carbonyl)amino]-3,4-dihydro-2H-1,4-benzoxazin-2-yl}propanoic acid]: 12 nM.

(Values after patent US9783511B2, “Carbamate benzoxazine propionic acids and acid derivatives for modulation of RORgamma activity and the treatment of disease” (Merck Sharp & Dohme Corp., priority 2013, dated 2017).)
